Legend:
[1] = biological target: T1, FLAG:AtNUDT7 (Arabidopsis thaliana, UniProt Q9SU14); assay: phosphate release coupled to calf alkaline phosphatase, molybdate A820; assay type: biochemical; details: 2 mM substrate, 5 mM MgCl2, 1 mM DTT, pH 8.5, 37 C; immunoprecipitate, not homogeneous
T1 construct: gene NUDT7; FLAG tag fused; Nicotiana benthamiana transient expression, anti-FLAG immunoprecipitated, eluted
T1 sequence (Q9SU14 1-282): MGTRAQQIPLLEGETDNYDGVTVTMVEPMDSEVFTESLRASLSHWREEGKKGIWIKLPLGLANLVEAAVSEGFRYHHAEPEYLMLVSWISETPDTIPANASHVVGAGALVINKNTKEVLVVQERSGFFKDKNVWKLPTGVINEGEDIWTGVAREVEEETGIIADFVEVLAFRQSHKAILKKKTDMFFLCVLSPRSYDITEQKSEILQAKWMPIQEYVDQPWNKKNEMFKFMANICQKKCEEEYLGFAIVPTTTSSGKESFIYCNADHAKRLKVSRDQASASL

[2] = biological target: T2, FLAG:Avr3b^P6497 (Avh307^P6497) (Phytophthora sojae, UniProt E0W4V8); assay: as above; assay type: biochemical; details: 2 mM substrate, 5 mM MgCl2, 1 mM DTT, pH 8.5, 37 C; immunoprecipitate, not homogeneous
T2 construct: gene Avh; signal peptide replaced by N-terminal FLAG tag; 34-35 kDa; precursor 315 residues; Nicotiana benthamiana agroinfiltration (PVX vector pGR107), anti-FLAG immunoprecipitated, 3xFLAG eluted
T2 sequence (E0W4V8 entry or part of it): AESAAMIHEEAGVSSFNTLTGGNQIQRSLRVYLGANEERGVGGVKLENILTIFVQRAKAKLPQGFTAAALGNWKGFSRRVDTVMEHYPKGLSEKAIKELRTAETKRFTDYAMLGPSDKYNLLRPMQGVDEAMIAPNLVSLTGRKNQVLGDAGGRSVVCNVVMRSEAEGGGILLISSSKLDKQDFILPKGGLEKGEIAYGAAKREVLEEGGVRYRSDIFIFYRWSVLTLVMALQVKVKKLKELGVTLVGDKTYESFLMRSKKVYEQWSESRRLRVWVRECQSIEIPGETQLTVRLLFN

Row | SMILES | relative hydrolase activity (ratio over GFP) [1] | relative hydrolase activity (ratio over GFP) [2]
1 | Nc1ncnc2c1ncn2[C@@H]1O[C@H](COP(=O)(O)OP(=O)(O)OC[C@H]2OC(O)[C@H](O)[C@@H]2O)[C@@H](O)[C@H]1O (stereo partly shown) [ADP-ribose] | FLAG:AtNUDT7 and FLAG:Avr3b^P6497 immunoprecipitates could both hydrolyze ADPR and NADH | FLAG:AtNUDT7 and FLAG:Avr3b^P6497 immunoprecipitates could both hydrolyze ADPR and NADH
2 | NC(=O)C1=CN([C@@H]2O[C@H](COP(=O)(O)OP(=O)(O)OC[C@H]3O[C@@H](n4cnc5c(N)ncnc54)[C@H](O)[C@@H]3O)[C@@H](O)[C@H]2O)C=CC1 [NADH] | FLAG:AtNUDT7 and FLAG:Avr3b^P6497 immunoprecipitates could both hydrolyze ADPR and NADH | FLAG:AtNUDT7 and FLAG:Avr3b^P6497 immunoprecipitates could both hydrolyze ADPR and NADH

Reference: paper PMC3213090, “Phytophthora sojae Avirulence Effector Avr3b is a Secreted NADH and ADP-ribose Pyrophosphorylase that Modulates Plant Immunity” (PLoS Pathogens, 2011)
